Experiments:
[1] = tested on: morphine-induced Straub tail; experiment: Antagonism of morphine-induced Straub tail (muscle relaxant activity); format: in vivo; conditions: Mus musculus, ip; mice, i.p., 15 min before morphine sulfate s.c.
Experimental: The characteristic elevation of the mouse tail (Straub tail) following morphine administration is due to a sustained, centrally mediated reflex contraction of the sacrococcygeus dorsalis muscle. Five to ten mice are used in each test, weight (18 to 30 grams) and placed in a Plexiglass observation chamber 2 to 3 minutes prior to injection. Animals are treated with the test compound at log doses, ca. 10 ml/kg, based upon the ED50 obtained from the Rotorod test (reduction of motor ability). Fifteen minutes later the desired dose of morphine sulfate, ca. 10 ml/kg, is injected subcutaneously and the mice observed for a period of 30 minutes following morphine administration for the presence or absence of Straub tail (defined as elevation of tail at 90° C. or more).

mice [2] = experiment: Reduction of motor ability, rotorod; format: in vivo; conditions: Mus musculus, ip, 50% decrease in mean time on the rotorod
Experimental: Following a method of Kinnard and Carr, J. Pharmacol. Exp. Therap., 121, 354 (1957), groups of 10 mice are preselected for their ability to remain upon a horizontal rotating (15 rpm) rod (rotorod) for 120 seconds. The mice are dosed with the test compound and tested at various times. The percent change in mean time upon the rotorod from the pre-drug control time of 120 seconds is calculated for each dose group. […] The ED50 is defined as the dose of compound producing a 50% decrease in mean time on the rotorod.

mice [3] = experiment: Acetic acid writhing syndrome test for analgesic activity; format: in vivo, mouse; conditions: for ED50: Mus musculus, sc
Experimental: J. Pharmacol., 22, 2246 (1964).
Groups of 5 to 10 mice are administered one or more doses of the test compound by the desired route (but not intraperitoneally). At a selected time the mice are administered acetic acid, 0.4 ml (0.25% v/v solution) i.p. Five minutes later, the mice are observed for a period of 15 minutes to determine the appearance of squirming (abdominal writhing), and the number of squirms for each mouse is determined.
For ED50 determination, four or more doses of compound are tested in groups of 10 mice. The following ED50 's for analgesic activity were observed and determined.

[4] = tested on: Spontaneously hypertensive rats; experiment: Systolic arterial blood pressure in spontaneously hypertensive rats (antihypertensive activity); format: in vivo, rat; conditions: for Change In Systolic Blood Pressure From Control Post Treatment: * p < 0.05
Experimental: Spontaneously hypertensive rates (males 250-300 g), obtained from the Charles River Breeding Laboratories, are divided into different treatment groups of 12 rats each. On separate days, one group of 12 rats is given 3, 10 or 30 mg/kg of the test compound, trans-3,4,4a,5,6,11b-hexahydro-10-fluoro-2H-[1]benzoxepino[5,4-b]-1,4-oxazine hydrochloride, by gavage and another group of 12 rats is given water (vehicle, 5 ml/kg).
Systolic arterial blood pressure is recorded from the tail of each rat using an occluding cuff and transducer. Systolic arterial blood pressure is recorded prior and subsequent to the administration of drug or vehicle at 1, 2, 3 and 4 hours post treatment.

[5] = 0.5 h, oral, pretreatment time 30 minutes
[6] = 0.5 h, subcutaneous, pretreatment time 30 minutes
[7] = 1 h, subcutaneous, pretreatment time 60 minutes
[8] = 2 h, subcutaneous, pretreatment time 120 minutes

Cl.c1ccc2c(c1)OCC[C@H]1NCCO[C@H]21 (relative stereo) [Trans-3,4,4a,5,6,11b-Hexahydro-2H-[1]benzoxepino-[5,4-b]-1,4-oxazine Hydrochloride]
ED50 [1]: 1.03 mg/kg | ED50 (mice [2]): 23.9 mg/kg

CN1CCO[C@@H]2c3ccccc3OCC[C@H]21.O=C(O)/C=C\C(=O)O (relative stereo) [Trans-3,4,4a,5,6,11b-Hexahydro-4-methyl-2H-[1]benzoxepino[5,4-b]-1,4-oxazine Maleate]
ED50 [1]: 2.89 mg/kg | ED50 (mice [2]): 12.4 mg/kg | ED50 (mice [3]; [5]): 42.8 mg/kg | ED50 (mice [3]; [6]): 4.35 mg/kg | ED50 (mice [3]; 1 h, oral, pretreatment time 60 minutes): 52.2 mg/kg | ED50 (mice [3]; [7]): 13.8 mg/kg | ED50 (mice [3]; [8]): 26.6 mg/kg | analgesic effect in brackets beside the ED50 (mice [3]; subcutaneous, pretreatment time 120 minutes, @ 256 mg/kg): 50%

CCN1CCO[C@@H]2c3ccccc3OCC[C@H]21 (relative stereo) [Trans-4-Ethyl-3,4,4a,5,6,11b-hexahydro-2H-[1]benzoxepino[5,4-b]-1,4-oxazine]
ED50 (mice [3]; [5]): 6.8 mg/kg | ED50 (mice [3]; [6]): 1.5 mg/kg | ED50 (mice [3]; [7]): 8.8 mg/kg | ED50 (mice [3]; [8]): > 128 mg/kg

Cl.Fc1ccc2c(c1)[C@H]1OCCN[C@@H]1CCO2 (relative stereo) [trans-3,4,4a,5,6,11b-hexahydro-10-fluoro-2H-[1]benzoxepino[5,4-b]-1,4-oxazine hydrochloride]
Change In Systolic Blood Pressure From Control Post Treatment ([4]; 3 mg/kg by gavage, 1 Hour): -15 mm Hg | Change In Systolic Blood Pressure From Control Post Treatment ([4]; 3 mg/kg by gavage, 2 Hours): -20 mm Hg | Change In Systolic Blood Pressure From Control Post Treatment ([4]; 3 mg/kg by gavage, 3 Hours): -22 mm Hg | Change In Systolic Blood Pressure From Control Post Treatment ([4]; 3 mg/kg by gavage, 4 Hours): -24 mm Hg | Change In Systolic Blood Pressure From Control Post Treatment ([4]; 10 mg/kg by gavage, 1 Hour): -52 mm Hg | Change In Systolic Blood Pressure From Control Post Treatment ([4]; 10 mg/kg by gavage, 2 Hours): -44 mm Hg | Change In Systolic Blood Pressure From Control Post Treatment ([4]; 10 mg/kg by gavage, 3 Hours): -42 mm Hg | Change In Systolic Blood Pressure From Control Post Treatment ([4]; 10 mg/kg by gavage, 4 Hours): -45 mm Hg | Change In Systolic Blood Pressure From Control Post Treatment ([4]; 30 mg/kg by gavage, 1 Hour): -84 mm Hg | Change In Systolic Blood Pressure From Control Post Treatment ([4]; 30 mg/kg by gavage, 2 Hours): -73 mm Hg | Change In Systolic Blood Pressure From Control Post Treatment ([4]; 30 mg/kg by gavage, 3 Hours): -73 mm Hg | Change In Systolic Blood Pressure From Control Post Treatment ([4]; 30 mg/kg by gavage, 4 Hours): -72 mm Hg | effect on systolic arterial blood pressure, in words ([4]; 3, 10, 30 mg/kg by gavage): dose related decrease in systolic arterial blood pressure that is statistically significant | duration of the anti-hypertensive effect ([4]; at the three doses tested (3, 10, 30 mg/kg, gavage)): at least 4 hours

— patent publication US4766212A, “2H-[1]benzoxepino[5,4-b]-1,4-oxazine derivatives” (Merrell Dow Pharmaceuticals Inc., priority 1987, dated 1988)
